Values joined by “and” are separate entries in the source; they are usually repeats but may differ in a detail not shown here. Identical values can stand only once.
Assays:
P388 [1] = assay: animal or person; conditions: Mus musculus
Description: In vivo antitumor activity in mice bearing P388 leukemia cells at an optimal dose of 65 mg/kg given on days 1,5,9

L1210 = assay: cells; conditions: Mus musculus, L1210, 72 h, read-out: ID50
Description: In vitro concentration required to reduce the murine L1210 leukemia cells in cultures to 50% after a period of 72 hr.

P388 [2] = assay: animal or person; conditions: Mus musculus; remark: listed apart in the source
Description: In vivo antitumor activity in mice bearing P388 leukemia cells at an optimal dose of 20 mg/kg given on days 1,5,9

physchem = conditions: Intestine
Description: Compound was evaluated for its rate of absorption from the intestine and pKa value was determined, lower value indicate high absorption from gastrointestinal tract.

P388 [3] = assay: animal or person; conditions: Mus musculus; remark: listed apart in the source
Description: In vivo antitumor activity in mice bearing P388 leukemia cells at an optimal dose of 30 mg/kg given on days 1,5,9

P388 [4] = assay: animal or person; conditions: Mus musculus; remark: listed apart in the source
Description: In vivo antitumor activity in mice bearing P388 leukemia cells at an optimal dose of 100 mg/kg given on days 1,5,9.

P388 [5] = assay: animal or person; conditions: Mus musculus; remark: listed apart in the source
Description: In vivo antitumor activity in mice bearing P388 leukemia cells at an optimal dose of 65 mg/kg given on days 1,5,9.

P388 [6] = assay: animal or person; conditions: Mus musculus; remark: listed apart in the source
Description: In vivo antitumor activity in mice bearing P388 leukemia cells at an optimal dose of 13.3 mg/kg given on days 1,5,9.

P388 [7] = assay: animal or person; conditions: Mus musculus; remark: listed apart in the source
Description: In vivo antitumor activity in mice bearing P388 leukemia cells at an optimal dose of 45 mg/kg given on days 1,5,9

P388 [8] = assay: animal or person; conditions: Mus musculus; remark: listed apart in the source
Description: In vivo antitumor activity in mice bearing P388 leukemia cells at an optimal dose of 45 mg/kg given on days 1,5,9.

P388 [9] = assay: animal or person; conditions: Mus musculus; remark: listed apart in the source
Description: In vivo antitumor activity in mice bearing P388 leukemia cells at an optimal dose of 30 mg/kg given on days 1,5,9.

P388 [10] = assay: animal or person; conditions: Mus musculus; remark: listed apart in the source
Description: In vivo antitumor activity in mice bearing P388 leukemia cells at an optimal dose of 300 mg/kg given on days 1,5,9.

P388 [11] = assay: animal or person; conditions: Mus musculus; remark: listed apart in the source
Description: In vivo antitumor activity in mice bearing P388 leukemia cells at an optimal dose of 100 mg/kg given on days 1,5,9

P388 [12] = assay: animal or person; conditions: Mus musculus; remark: listed apart in the source
Description: In vivo antitumor activity in mice bearing P388 leukemia cells at an optimal dose of 50 mg/kg given on days 1,5,9

P388 [13] = assay: animal or person; conditions: Mus musculus; remark: listed apart in the source
Description: In vivo antitumor activity in mice bearing P388 leukemia cells at an optimal dose of 20 mg/kg given on days 1,5,9.

SMILES | IC50 (L1210) | Log K (Nucleic Acid) | pKa (physchem) | ILS at 100 mg/kg (P388 [4]) | further results
COc1cc(NS(C)(=O)=O)ccc1Nc1c2ccccc2nc2c(C)cccc12 | 30 nM | 6.03 and 5.96 | – | – | ILS at 65 mg/kg (P388 [1]): 47%; ILS at 20 mg/kg (P388 [2]): 143%
COc1cc(NS(C)(=O)=O)ccc1Nc1c2cccc(C)c2nc2c(OC)cccc12 | 30 nM | 6.21 and 6.19 | 6.9 | 69% | ILS at 30 mg/kg (P388 [3]): 109%
COc1cc(NS(C)(=O)=O)ccc1Nc1c2cccc(C)c2nc2c(C(N)=O)cccc12 | 47 nM | 6.62 and 6.92 | 6.43 | 25% | ILS at 20 mg/kg (P388 [2]): 113%
COc1cc(NS(C)(=O)=O)ccc1Nc1c2ccccc2nc2ccccc12 [AMSACRINE] | – | 5.57 and 5.65 | – | – | ILS at 65 mg/kg (P388 [5]): 63%; ILS at 13.3 mg/kg (P388 [6]): 78%
COc1cc(NS(C)(=O)=O)ccc1Nc1c2cccc(OC)c2nc2c(OC)cccc12 | 65 nM | 6.32 and 6.4 | – | 48% | ILS at 45 mg/kg (P388 [7]): 99%
COc1cc(NS(C)(=O)=O)ccc1Nc1c2cccc(C)c2nc2c(C)cccc12 | 110 nM | 6.14 and 6.46 | – | 86% | ILS at 45 mg/kg (P388 [8]): 135%
COc1cc(NS(C)(=O)=O)ccc1Nc1c2ccccc2nc2c(C(N)=O)cccc12 | 270 nM | – | – | 11% | ILS at 30 mg/kg (P388 [9]): 113%
CNC(=O)c1cccc2c(Nc3ccc(NS(C)(=O)=O)cc3OC)c3ccccc3nc12 | 270 nM | – | – | – | ILS at 300 mg/kg (P388 [10]): 127%; ILS at 100 mg/kg (P388 [11]): 128%
COc1cc(NS(C)(=O)=O)ccc1Nc1c2ccccc2nc2c(OC)cccc12 | 40 nM | 5.94 and 6 | – | – | ILS at 45 mg/kg (P388 [8]): 23%; ILS at 30 mg/kg (P388 [3]): 139%
CNC(=O)c1cccc2c(Nc3ccc(NS(C)(=O)=O)cc3OC)c3cccc(C)c3nc12 [ASULACRINE] | – | – | 6.4 | – | ILS at 50 mg/kg (P388 [12]): 164%; ILS at 20 mg/kg (P388 [2]): 200%
CNC(=O)c1cccc2c(Nc3ccc(NS(C)(=O)=O)cc3OC)c3cccc(OC)c3nc12 | 17 nM | 6.24 and 6.65 | 6.55 | 34% | ILS at 20 mg/kg (P388 [13]): 139%

Reference: ChEMBL document CHEMBL1122588 (J Med Chem, 1984)
